Experimental data reported in the supplement of paper PMC10307832.

What was measured:
Assay in all cases: relative viability (nuclei count vs DMSO), 5 days (fraction); higher = more cells survive
[1] = compound: C1CSC2=C(C(=O)N1)SC3=C2C=C(C=C3)O [kb NB 142-70] + Nc1ncn([C@H]2C[C@H](O)[C@@H](CO)O2)c(=O)n1 [Decitabine] (partner 2 µM)
Outline: (§1)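 Nuclei were stained with Hoechst during a one-step fixation (final 0.05% Triton X-100, 1% formaldehyde, 1 ug/ml Hoechst) carried out 5 days after dosing, then counted on 4× images. The cells, lung cancer lines in 1536-well plates, had been dosed by pin tool the day after seeding with one drug alone or a fixed anchor-drug dose plus five library-drug doses (not always all listed) in √10 steps. Relative viability is the nuclei count in treated wells divided by that in vehicle wells, and each value is the median of duplicate plates.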

[2] = compound: NCC(=O)Nc1ccc(-n2nc(C(F)(F)F)cc2-c2ccc3c(ccc4ccccc43)c2)cc1 + C[C@@H](Oc1cc(-c2cnn(C3CCNCC3)c2)cnc1N)c1c(Cl)ccc(F)c1Cl [Crizotinib] (partner 1 µM)
Outline: as §1

[3] = compound: NCC(=O)Nc1ccc(-n2nc(C(F)(F)F)cc2-c2ccc3c(ccc4ccccc43)c2)cc1 + COc1cccc2cc(-c3nc([C@H]4CC[C@H](C(=O)O)CC4)n4ncnc(N)c34)[nH]c12 [OSI-027] (partner 0.5 µM)
Outline: as §1

[4] = compound: NCC(=O)Nc1ccc(-n2nc(C(F)(F)F)cc2-c2ccc3c(ccc4ccccc43)c2)cc1 + O=C(c1cc(Cc2n[nH]c(=O)c3ccccc23)ccc1F)N1CCN(C(=O)C2CC2)CC1 [Olaparib] (partner 8 µM)
Outline: as §1

| Cell Line | relative viability ([1]; first compound 0.1 µM) | relative viability ([1]; first compound 1 µM) | relative viability ([1]; first compound 3.162 µM) | relative viability ([2]; first compound 0.02 µM) | relative viability ([2]; first compound 0.06325 µM) | relative viability ([2]; first compound 0.2 µM) | relative viability ([2]; first compound 0.6325 µM) | relative viability ([2]; first compound 2 µM) | relative viability ([3]; first compound 0.02 µM) | relative viability ([3]; first compound 0.06325 µM) | relative viability ([3]; first compound 0.2 µM) | relative viability ([3]; first compound 0.6325 µM) | relative viability ([3]; first compound 2 µM) | relative viability ([4]; first compound 0.02 µM) | relative viability ([4]; first compound 0.06325 µM) | relative viability ([4]; first compound 0.2 µM) | relative viability ([4]; first compound 0.6325 µM) | relative viability ([4]; first compound 2 µM) |
| --- | --- | --- | --- | --- | --- | --- | --- | --- | --- | --- | --- | --- | --- | --- | --- | --- | --- | --- |
| BEN | 0.776 | 0.741 | 0.588 | 0.923 | 0.997 | 0.837 | 0.965 | 0.9 | 0.281 | 0.32 | 0.296 | 0.326 | 0.297 | 1 | 1.23 | 0.993 | 1.21 | 1.03 |
| NCI-H23 | 0.34 | 0.266 | 0.251 | 0.512 | 0.501 | 0.542 | 0.509 | 0.565 | 0.576 | 0.664 | 0.809 | 0.608 | 0.531 | 0.33 | 0.442 | 0.364 | 0.329 | 0.336 |
| 201T | 0.892 | 0.867 | 0.825 | 1.02 | 1.02 | 1.01 | 1.03 | 0.984 | 0.806 | 0.769 | 0.724 | 0.649 | 0.606 | 0.867 | 0.868 | 0.856 | 0.879 | 0.844 |
| NCI-H2170 | 0.501 | 0.496 | 0.369 | 1.24 | 1.22 | 1.1 | 1.22 | 1.22 | 0.67 | 0.678 | 0.711 | 0.824 | 0.735 | 0.689 | 0.638 | 0.62 | 0.673 | 0.605 |
| NCI-H460 | 0.538 | 0.606 | 0.354 | 0.922 | 0.952 | 0.931 | 0.811 | 0.688 | 0.583 | 0.642 | 0.696 | 0.587 | 0.675 | 0.368 | 0.41 | 0.458 | 0.354 | 0.446 |
| NCI-H661 | 0.614 | 0.588 | 0.496 | 1.16 | 0.905 | 1.11 |  | 1.01 | 0.681 | 0.691 | 0.724 | 0.673 | 0.715 | 0.773 | 0.731 | 0.763 | 0.713 | 0.73 |
| HCC-15 | 0.618 | 0.694 | 0.553 | 0.817 | 0.808 | 0.795 | 0.773 | 0.768 | 0.675 | 0.679 | 0.689 | 0.658 | 0.697 | 0.718 | 0.743 | 0.798 | 0.681 | 0.711 |
| ABC-1 | 1.05 | 0.69 | 0.776 | 1.33 | 1.77 |  | 1.04 | 0.992 | 0.558 | 0.409 |  | 0.471 | 0.542 | 0.594 | 0.671 |  | 0.921 | 0.78 |
| LCLC-103H | 0.75 | 0.737 | 0.773 | 1.16 | 1.01 | 1.1 | 1.02 | 0.977 | 0.412 | 0.43 | 0.443 | 0.575 | 0.429 | 0.685 | 0.793 | 0.787 | 0.765 | 0.752 |
| NCI-H441 | 0.259 | 0.213 | 0.162 | 1.08 | 0.666 | 0.73 | 0.6 | 0.749 | 0.647 | 0.675 | 0.613 | 0.551 | 0.631 | 0.546 | 0.58 | 0.52 | 0.493 | 0.598 |
| EPLC-272H | 0.404 | 0.303 | 0.303 | 1.03 | 0.965 | 0.881 | 0.878 | 0.962 | 0.307 | 0.246 | 0.28 | 0.311 | 0.274 | 0.731 | 0.699 | 1.05 | 0.848 | 0.851 |
